Laboratory results taken from PubChem BioAssay (NCI).
Where “and” joins values, the source holds several entries; their conditions need not be identical. Equal entries are not always repeated.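 Five compound concentrations were applied to cells in 96-well plates for 48 hours; endpoints were derived by simple linear interpolation of the resulting dose-response curve. At the GI50, growth is halved. TGI denotes the concentration required for complete inhibition of growth.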

Assays:
Test in all cases: DTP human tumour cell line panel, 48 h
A549 NSCLC = system: A549 NSCLC
CCRF-CEM leukemia = system: CCRF-CEM leukemia
COLO 205 colon = system: COLO 205 colon
HOP-62 NSCLC = system: HOP-62 NSCLC
K-562 leukemia = system: K-562 leukemia
M19-MEL melanoma = system: M19-MEL melanoma
MOLT-4 leukemia = system: MOLT-4 leukemia
U251 CNS = system: U251 CNS
LOX IMVI melanoma = system: LOX IMVI melanoma
RXF 393 renal = system: RXF 393 renal

Row | SMILES | TGI (A549 NSCLC) | TGI (CCRF-CEM leukemia) | TGI (COLO 205 colon) | TGI (HOP-62 NSCLC) | TGI (K-562 leukemia) | TGI (M19-MEL melanoma) | TGI (MOLT-4 leukemia) | TGI (U251 CNS) | TGI (LOX IMVI melanoma) | TGI (RXF 393 renal) | GI50 (A549 NSCLC) | GI50 (MOLT-4 leukemia) | GI50 (RXF 393 renal) | GI50 (U251 CNS) | GI50 (CCRF-CEM leukemia) | GI50 (COLO 205 colon) | GI50 (HOP-62 NSCLC) | GI50 (K-562 leukemia) | GI50 (LOX IMVI melanoma)
1 | COC(=O)[C@H]1[C@H]2C[C@@H]3c4[nH]c5cc(OC)ccc5c4CCN3C[C@H]2C[C@@H](OC(=O)c2cc(OC)c(OC)c(OC)c2)[C@@H]1OC | 55.5 µM | 44.1 µM | 33.6 µM | 28.1 µM | 29.3 µM | 50 µM | 50.6 µM | 28.2 µM | – | – | – | – | – | – | – | – | – | – | –
2 | O=C(CC(=O)C(=O)Nc1ccccc1)CC(c1ccccc1)c1c(O)c2ccccc2oc1=O (configuration not stated) | > 100 µM | > 100 µM | > 100 µM | – | > 100 µM | > 100 µM | > 100 µM | – | > 100 µM | > 100 µM | – | – | – | – | – | – | – | – | –
3 | CCCCSN1C(=O)c2ccccc2C1=S | > 100 µM | 53 µM | > 100 µM | > 100 µM | 69.5 µM | > 100 µM | 50.3 µM | > 100 µM | > 100 µM | > 100 µM | – | – | – | – | – | – | – | – | –
4 | Cc1ccc(C2CC(c3ccc([N+](=O)[O-])cc3)=Nc3ccccc3S2)cc1 (configuration not stated) | > 100 µM | 34.2 µM | > 100 µM | > 100 µM | 41.5 µM | 45 µM | 69 µM | – | 34.6 µM | 38.9 µM | – | – | – | – | – | – | – | – | –
5 | CC1(C)OC(=O)[C@@](C)([C@H](O)c2ccccc2)O1 | > 100 µM | > 100 µM | – | > 100 µM | > 100 µM | > 100 µM | > 100 µM | > 100 µM | – | > 100 µM | – | – | – | – | – | – | – | – | –
6 | COC(=O)C1CC(=O)CCC1c1ccccc1 (configuration not stated) | > 100 µM | > 100 µM | > 100 µM | > 100 µM | > 100 µM | > 100 µM | > 100 µM | > 100 µM | > 100 µM | – | – | – | – | – | – | – | – | – | –
7 | N#CNC(N)=NCCO | > 100 µM | – | > 100 µM | > 100 µM | > 100 µM | > 100 µM | > 100 µM | > 100 µM | – | 68.3 µM | – | – | – | – | – | – | – | – | –
8 | N#CCCN(CCC#N)C(=O)c1cccc(C(=O)N(CCC#N)CCC#N)c1 | > 100 µM | > 100 µM | > 100 µM | > 100 µM | > 100 µM | > 100 µM | > 100 µM | > 59.4 µM | 30.3 µM | 9.76 µM | – | – | – | – | – | – | – | – | –
9 | O=S1CSCS1 (configuration not stated) | > 100 µM | > 100 µM | > 100 µM | > 100 µM | > 100 µM | > 100 µM | > 100 µM | > 100 µM | > 100 µM | > 100 µM | – | – | – | – | – | – | – | – | –
10 | O=C(C/C(=N\NC(=O)C[n+]1ccccc1)C(=O)Nc1nc2ccc([N+](=O)[O-])cc2s1)CC(c1ccccc1)c1c(O)c2ccccc2oc1=O (configuration not stated) | > 100 µM | > 100 µM | > 100 µM | > 100 µM | > 100 µM | > 100 µM | > 100 µM | – | – | > 100 µM | – | – | – | – | – | – | – | – | –
11 | Nc1ncnc2c1ncn2C1OC(CSC(F)(F)F)C(O)C1O (configuration not stated) | > 100 µM | > 100 µM | > 100 µM | > 100 µM | > 100 µM | > 100 µM | > 100 µM | > 100 µM | > 100 µM | – | – | – | – | – | – | – | – | – | –
12 | Cc1cc(=O)n(-c2ccccc2)c(=O)o1 | > 100 µM | > 100 µM | > 100 µM | > 100 µM | > 100 µM | > 100 µM | > 100 µM | > 100 µM | > 100 µM | > 100 µM | – | – | – | – | – | – | – | – | –
13 | C/C=C(\C)c1cc(=O)c2c(C)cc3c(c2o1)C(=O)c1c(O)c(C2CC(C)(N(C)C)C(O)C(C)O2)cc(C2CC(N(C)C)C(O)C(C)O2)c1C3=O (configuration not stated) | 1.66 µM | > 52 µM | 4.09 µM and 20.1 µM | – | > 53.6 µM | 16.1 µM | 15.6 µM | 1.35 µM and 5.71 µM | – | – | 0.153 µM | 0.687 µM | 0.156 µM and 1.39 µM | 0.206 µM and 1.74 µM | – | – | – | – | –
14 | Cc1ccc(NC(=O)CC/C(CC(=O)C(C)(C)C)=N/NC(=O)C(N)=O)cc1C | > 100 µM | > 100 µM | > 100 µM | > 100 µM | > 100 µM | > 100 µM | > 100 µM | > 100 µM | – | > 100 µM | – | – | – | – | – | – | – | – | –
15 | NC(N)=NS(=O)(=O)c1ccc(Nc2c3ccccc3nc3c(C(=O)N4CCN(CCO)CC4)cccc23)cc1 | > 100 µM | > 100 µM | > 100 µM | > 100 µM | > 100 µM | > 100 µM | > 100 µM | > 100 µM | > 100 µM | > 100 µM | – | – | – | – | – | – | – | – | –
16 | CC(C)N(C(=O)C12C3C4C5C3C1(C(=O)N(C(C)C)C(C)C)C5(C#N)C42)C(C)C (configuration not stated) | > 100 µM | 51.6 µM | > 100 µM | > 100 µM | 73 µM | > 100 µM | > 100 µM | > 100 µM | 47.2 µM | – | – | – | – | – | – | – | – | – | –
17 | CC1(C)CCC[C@@]2(C)C1C[C@H](O)[C@@]1(C)O[C@@](C)([C@H](O)CO)CCC21 (some centres not stated) | > 100 µM | > 100 µM | 56.5 µM | > 100 µM | > 100 µM | > 100 µM | 62 µM | > 100 µM | – | – | – | – | – | – | – | – | – | – | –
18 | O=C(O)C1CCc2nnc(-c3ccccc3)n21 (configuration not stated) | > 100 µM | > 100 µM | > 100 µM | > 100 µM | > 100 µM | > 100 µM | > 100 µM | > 100 µM | – | > 100 µM | – | – | – | – | – | – | – | – | –
19 | CC1(C)C(c2ccccc2)=NN(O)c2ccccc21 | > 100 µM | > 100 µM | > 100 µM | > 100 µM | > 100 µM | > 100 µM | > 100 µM | > 100 µM | – | > 100 µM | – | – | – | – | – | – | – | – | –
20 | CCOC(=O)c1cc(/C=C/C(C)=C/C(=O)OC)oc1-c1ccccc1 | > 100 µM | > 100 µM | > 100 µM | – | > 100 µM | > 100 µM | > 100 µM | > 100 µM | > 100 µM | – | – | – | – | – | – | – | – | – | –
21 | O=[N+]([O-])c1cc([N+](=O)[O-])c(Cl)c(Cl)c1Cl | 13.9 µM | 5.78 µM | 2.03 µM | 3.05 µM | 10.9 µM | – | 5.82 µM | 3.02 µM | 1.86 µM | 1.86 µM | 3.16 µM | 0.831 µM | 0.636 µM | 1.59 µM | 0.459 µM | 0.616 µM | 1.67 µM | 0.725 µM | 0.516 µM
22 | COC(=O)CCC(C)[C@H]1CCC2C3C(C[C@H](OC(C)=O)[C@@]21C)[C@@]1(C)CCC2(C[C@H]1C[C@H]3OC(C)=O)OOC1(CCC(C)CC1)OO2 (some centres not stated) | 25.4 µM and > 100 µM | > 100 µM | > 100 µM | 6.4 µM and 28.4 µM | > 100 µM | – | > 100 µM | > 100 µM | > 100 µM | > 100 µM | 3.89 µM and 13.4 µM | 2.86 µM and 25.5 µM | – | – | – | 8.13 µM and 48.8 µM | 2.06 µM and 8.76 µM | 3.78 µM and 26.8 µM | –
